Test results as given in patent US20100119609A1, “METHODS, COMPOSITIONS, AND FORMULATIONS FOR THE TREATMENT OF THYROID EYE DISEASE” (priority 2006, published 2010).

Tests used:
[1] = compared with albuterol 5, a short acting hydrophilic beta agonist; cited from earlier work
[2] = test system: cultured human adipocytes; test: In vitro lipolysis assay (glycerol release) in cultured adipocytes; format: cell-based; settings: for increase in lipolysis relative to negative control: glycerol in Assay Buffer
Procedure: In the in vitro lipolysis assay, glycerol was detected in cell culture media via a spectrophotometric measurement after chemical oxidation with hydrogen peroxide. Glycerol was measured over a three hour time period. Levels of lipolysis in cultured human adipocytes were tested after exposure to a beta agonist alone, a glucocorticosteroid alone, or the combination of the two for one or more preincubation periods as described in more detail below.
Human subcutaneous adipocytes were used in the lipolysis assay. Adipose tissue was harvested from liposuction or lipectomy and pre-adipocytes were isolated as follows. Briefly, fat tissue was minced and incubated at 37° C. in Krebs-Ringer bicarbonate buffer containing 1% bovine serum albumin and 0.1% collagenase in an oxygen-rich shaking chamber (5% CO2; 75 strokes/min) for 1 hour. The suspension was filtered through a 400 tim nylon mesh and centrifuged for 1 mm at 100 g. The pre-adipocytes in the […] were washed twice with and then plated in 96 well plates at a density of cells/well. The pre-adipocytes were cultured in maintenance medium for seven days as they differentiated into adipocytes.
At −21 hours before the lipolysis assay, medium was removed from each well and replaced with 75 μl of Maintenance Medium containing appropriate drug or DMSO (vehicle) concentrations (see Experimental Design section below). Each test drug or control treatment was applied to 8 wells/group (12 treatment groups per 96-well plate). At −3 hours prior to the lipolysis assay, each well was washed two times with Wash Buffer (200 μl/wash), filled with test or control solutions made up in Assay Buffer (75 μl/well), and then incubated for three hours, i.e., until measurement of glycerol content in the Assay Buffer. For some groups, a drug was only added for the three hour incubation period (see Experimental and Control Groups Below).
The glycerol content of the Assay Buffer from each well following the incubation was used as an index for lipolysis, where an increase in glycerol indicated lipolysis. Glycerol levels were assayed colorimetrically via a commercial glycerol assay kit (Randox Laboratory, United Kingdom) and quantified by comparison to a glycerol serial dilution standard curve (3 μM-200 μM). Glycerol concentrations for each well were normalized to cell density.
In each of the following control or experimental groups n=8 corresponding to the glycerol measurements for 8 wells from a 96-well cell culture plate.

[3] = 18 hour incubation, Salmeterol 10^−6 M or 10^−8 M, Budesonide 10^−6 M, Isoproterenol 10^−6 M
[4] = three hour incubation, isoproterenol 10^−6 M

Row | Molecule | lipophilicity relative to albuterol [1] | effect on lipolysis in cultured adipocytes [2, 3] | effect on lipolysis in cultured adipocytes ([2]; three hour incubation) | increase in lipolysis relative to negative control [2, 4] | lipolysis compared with isoproterenol (positive control) [2, 4]
1 | OCc1cc(C(O)CNCCCCCCOCCCCc2ccccc2)ccc1O (racemic) [Salmeterol, ±2-(hydroxymethyl)-4-[1-hydroxy-2-[6-(4-phenylbutoxy)hexylamino]ethyl]-phenol] | at least 10,000 times | – | – | – | –
2 | budesonide | – | slight suppression of lipolysis | dose-dependent induction of lipolysis | up to 1.5 fold | lower than that observed for Isoproterenol
3 | CC(C)NCC(O)c1ccc(O)c(O)c1 (stereo not shown) [Isoproterenol, isoproterenol] | – | decreased lipolysis | – | about 2.5 fold | –
